This note sets out measurements from patent US11857565B2, “Hydrophobic Auristatin F compounds and conjugates thereof” (priority 2018, dated 2024).

Assay type in all cases: cell-based
One assay relates to SK-MEL-28 Melanoma. The experiment in a line: In vitro cytotoxicity, free drugs on SK-MEL-28. Particulars: free drug. As for the experimental part: (§1) The cytotoxicity of an auristatin Ligand Drug Conjugate or free auristatin drug was measured by a cell proliferation assay employing the protocol described in Promega Corp. Technical Bulletin TB288; Mendoza et al., 2002, Cancer Res. 62:5485-5488), the methods of which is specifically incorporated by reference herein. Briefly, an aliquot of 100 μl of cell culture containing about […] (e.g., HL-60, SK-MEL-5, etc.) in medium is deposited in each well of a 96-well, opaque-walled plate. Control wells were prepared containing medium and without cells. Free Drug or conjugate is added to the experimental wells and incubated for 96 h and are then equilibrated to room temperature for approximately 30 minutes whereupon a volume of CellTiter-Glo™ reagent equal to the volume of cell culture medium present in each well is added. The contents are mixed for 2 minutes on an orbital shaker to induce cell lysis and the plate is incubated at room temperature for 10 minutes to stabilize the luminescence signal for recordation.

In another assay the test system is SK-MEL-5 Melanoma. The experiment in a line: In vitro cytotoxicity, free drugs on SK-MEL-5. Particulars: free drug. The method, then:
as §1

The next assay deals with A2058 Melanoma. The experiment in a line: In vitro cytotoxicity, free drugs on A2058. Particulars: free drug. As for the experimental part: as §1
The subject of another assay is A375 Melanoma. The experiment in a line: In vitro cytotoxicity, free drugs on A375. Particulars: free drug. As for the experimental part: as §1
The subject of a further assay is IGR-37 Melanoma. The experiment in a line: In vitro cytotoxicity, free drugs on IGR-37. Particulars: free drug. The method, then: as §1
Assay [1] is described as follows: In vitro cytotoxicity, free drugs on Colo-853. Particulars: free drug; read-out: In vitro IC50 Colo-853 Colon Cancer. As for the experimental part:
as §1

The test system of assay [2] is MDR− HL60 acute myeloid leukemia cell line. The experiment in a line: In vitro cytotoxicity (CellTiter-Glo cell proliferation assay), free drugs on HL60. Particulars: free drug, 96 h incubation; read-out: In vitro IC50 HL60 (MDR−). As for the experimental part:
as §1
On the technique in general: Cellular ATP, detected with luciferase, serves as a proxy for viable cell number.

The test system of assay [3] is MDR+ HL60/RV acute myeloid leukemia cell line. The experiment in a line: In vitro cytotoxicity (CellTiter-Glo cell proliferation assay), free drugs on HL60/RV. As to conditions: free drug, 96 h incubation; read-out: In vitro IC50 HL60/RV (MDR+). As for the experimental part: as §1
Assay [4] has as its system 786-O Renal Cell Carcinoma. The experiment in a line: In vitro cytotoxicity, 4-load auristatin ADCs on 786-O. As to conditions: 4-load ADC. As for the experimental part:
as §1

For assay [5], the system named is A498 Renal Cell Carcinoma. The experiment in a line: In vitro cytotoxicity, 4-load auristatin ADCs on A498. Particulars: 4-load ADC. As for the experimental part: as §1
The subject of a further assay is L428 Hodgkin Lymphoma. The experiment in a line: In vitro cytotoxicity, 4-load auristatin ADCs on L428. Particulars: 4-load ADC. The method, then: as §1

Starred links: 1 amine or outer side, 2 acyl side, 3 side chain; linkers in the order of their positions; H or OH if unused. Non-standard residues stand in square brackets, D forms with d. Residues, ends and D or L forms follow the SMILES beside them. *: point of attachment. Dolaproine = CO[C@@H]([C@@H]1CCCN1)[C@@H](C)C(=O)O; X2 = CC(C)[C@@H](C(=O)[*:2])N(C)CCCCCN(C)[*:1]; X5 = CC(C)[C@@H](C(=O)[*:2])N(C)CCCN(C)[*:1]; X7 = CC(C)[C@@H](C(=O)[*:2])N(C)CCN(C)[*:1]; Dil = CC[C@H](C)[C@H](NC)[C@@H](CC(=O)O)OC; X6 = CC(C)[C@@H](C(=O)[*:2])N(C)CCCN[*:1]; X1 = C[C@@H](N*)[C@@H](O)c1ccccc1; NMeV = CN[C@H](C(=O)O)C(C)C; Boc = CC(C)(C)OC(=O)*

Turning to `CC[C@H](C)[C@@H]([C@@H](CC(=O)N1CCC[C@H]1[C@H](OC)[C@@H](C)C(=O)N[C@@H](Cc1ccccc1)C(=O)O)OC)N(C)C(=O)[C@@H](NC(=O)[C@H](C(C)C)N(C)CCN(C)C(=O)OC(C)(C)C)C(C)C` [Compound 24, Boc-(N-methyl-ethyl)-AF] (Boc-[X7]V[Dil][Dolaproine]F-OH), the IC50 in the assay on SK-MEL-28 Melanoma (Homo sapiens, SK-MEL-28) stood at 13.9 nM; in the assay with SK-MEL-5 Melanoma (Homo sapiens, SK-MEL-5), 5.7 nM; in the assay with A2058 Melanoma (Homo sapiens, A2058) it was 5.2 nM; with A375 Melanoma (Homo sapiens, A-375) it was 4.9 nM; with IGR-37 Melanoma (Homo sapiens, IGR-37) it was 23.1 nM; in assay [1] it was 19.6 nM.
Take `CC[C@H](C)[C@@H]([C@@H](CC(=O)N1CCC[C@H]1[C@H](OC)[C@@H](C)C(=O)N[C@@H](Cc1ccccc1)C(=O)O)OC)N(C)C(=O)[C@@H](NC(=O)[C@H](C(C)C)N(C)CCCNC(=O)OC(C)(C)C)C(C)C` [Compound 18, N-Boc-propyl-AF] (Boc-[X6]V[Dil][Dolaproine]F-OH): the IC50 was 21 nM with SK-MEL-28 Melanoma (Homo sapiens, SK-MEL-28); 4 nM in the assay on SK-MEL-5 Melanoma (Homo sapiens, SK-MEL-5); 9.1 nM in the assay with A2058 Melanoma (Homo sapiens, A2058); 4.9 nM in the assay with A375 Melanoma (Homo sapiens, A-375); 13.7 nM with IGR-37 Melanoma (Homo sapiens, IGR-37); 17.5 nM in assay [1].
Regarding `CC[C@H](C)[C@@H]([C@@H](CC(=O)N1CCC[C@H]1[C@H](OC)[C@@H](C)C(=O)N[C@H](C)[C@@H](O)c1ccccc1)OC)N(C)C(=O)[C@@H](NC(=O)[C@@H](NC)C(C)C)C(C)C` [Compound 3, Monomethyl auristatin E, reference compound] (H-[NMeV]V[Dil][Dolaproine]-X1), the IC50 in assay [2] was 1 nM; in assay [3] it was 180 nM; with SK-MEL-28 Melanoma, 0.1 nM; in the assay on SK-MEL-5 Melanoma, 0.1 nM; in the assay on A2058 Melanoma it was 0.1 nM; in the assay with A375 Melanoma it was 0.1 nM. Moreover, the IC50 amounted to 0.2 nM with IGR-37 Melanoma and 0.1 nM in assay [1].
Regarding `CC[C@H](C)[C@@H]([C@@H](CC(=O)N1CCC[C@H]1[C@H](OC)[C@@H](C)C(=O)N[C@@H](Cc1ccccc1)C(=O)O)OC)N(C)C(=O)[C@@H](NC(=O)[C@H](C(C)C)N(C)CCCN(C)C(=O)OC(C)(C)C)C(C)C` [Compound 25, (Boc-N-methyl)-propyl-AF] (Boc-[X5]V[Dil][Dolaproine]F-OH), the IC50 was 17.2 nM in the assay on SK-MEL-28 Melanoma (Homo sapiens, SK-MEL-28); 6.1 nM in the assay on SK-MEL-5 Melanoma (Homo sapiens, SK-MEL-5); 4 nM in the assay on A2058 Melanoma (Homo sapiens, A2058); 5.9 nM with A375 Melanoma (Homo sapiens, A-375); 16.1 nM in the assay on IGR-37 Melanoma (Homo sapiens, IGR-37); 15.1 nM in assay [1].
With `CC[C@H](C)[C@@H]([C@@H](CC(=O)N1CCC[C@H]1[C@H](OC)[C@@H](C)C(=O)N[C@@H](Cc1ccccc1)C(=O)O)OC)N(C)C(=O)[C@@H](NC(=O)[C@H](C(C)C)N(C)CCCCCN(C)C(=O)OC(C)(C)C)C(C)C` [Compound 26, (Boc-N-methyl)-pentyl-AF] (Boc-[X2]V[Dil][Dolaproine]F-OH), the IC50 in the assay on SK-MEL-28 Melanoma (Homo sapiens, SK-MEL-28) came to 9.6 nM; with SK-MEL-5 Melanoma (Homo sapiens, SK-MEL-5), 0.9 nM; with A2058 Melanoma (Homo sapiens, A2058), 0.9 nM; in the assay on A375 Melanoma (Homo sapiens, A-375), 2.1 nM; in the assay with IGR-37 Melanoma (Homo sapiens, IGR-37) it was 6.5 nM; in [1], 12.5 nM.

B1: h1F6-37(4): 4-load auristatin ADC targeting CD70: h1F6 antibody conjugated to drug linker compound 37 (conjugate, chains of the INN, looked up)
VH: QVQLVQSGAEVKKPGASVKVSCKASGYTFTNYGMNWVRQAPGQGLKWMGWINTYTGEPTYADAFKGRVTMTRDTSISTAYMELSRLRSDDTAVYYCARDYGDYGMDYWGQGTTVTVSS
VL: DIVMTQSPDSLAVSLGERATINCRASKSVSTSGYSFMHWYQQKPGQPPKLLIYLASNLESGVPDRFSGSGSGTDFTLTISSLQAEDVAVYYCQHSREVPWTFGQGTKVEIK
modifications: auristatin drug linker compound 37, 4-load
Consider B1, for which, in [4], the “In vitro IC50 786-O Renal Cell Carcinoma” value is reported as 23 ng/mL. Further, the “In vitro IC50 A498 Renal Cell Carcinoma” value in [5] turned out to be 39 ng/mL. Also, the “In vitro IC50 L428 Hodgkin Lymphoma” value in the assay with L428 Hodgkin Lymphoma was found to be 2 ng/mL.

B2: h1F6-mc-vc-MMAF(4): comparator 4-load h1F6 ADC having an mc-vc-MMAF drug linker (conjugate, chains of the INN, looked up)
VH: B1 VH
VL: B1 VL
modifications: mc-vc-MMAF, 4-load
notes: comparator 4-load h1F6 ADC having an mc-vc-MMAF drug linker
As for B2, the “In vitro IC50 786-O Renal Cell Carcinoma” value in assay [4] is on record as 5 ng/mL. For the same molecule, the “In vitro IC50 A498 Renal Cell Carcinoma” value in assay [5] was 8 ng/mL. Besides, the “In vitro IC50 L428 Hodgkin Lymphoma” value in the assay with L428 Hodgkin Lymphoma is listed as 7 ng/mL.

B3: h1F6-38(4): 4-load auristatin ADC targeting CD70: h1F6 antibody conjugated to drug linker compound 38 (conjugate, chains of the INN, looked up)
VH: B1 VH
VL: B1 VL
modifications: auristatin drug linker compound 38, 4-load
With B3, the “In vitro IC50 786-O Renal Cell Carcinoma” value in assay [4] was 12 ng/mL. The “In vitro IC50 A498 Renal Cell Carcinoma” value in assay [5] is 36 ng/mL. In addition, the “In vitro IC50 L428 Hodgkin Lymphoma” value in the assay on L428 Hodgkin Lymphoma is given as 2 ng/mL.

B4: h1F6-mc-vc-MMAE(4): comparator 4-load h1F6 ADC having an mc-vc-MMAE drug linker (conjugate, chains of the INN, looked up)
VH: B1 VH
VL: B1 VL
modifications: mc-vc-MMAE, 4-load
notes: comparator 4-load h1F6 ADC having an mc-vc-MMAE drug linker
In the case of B4, the “In vitro IC50 786-O Renal Cell Carcinoma” value in assay [4] is reported as above 1000 ng/mL. In addition, the “In vitro IC50 A498 Renal Cell Carcinoma” value in assay [5] is given as above 1000 ng/mL. The “In vitro IC50 L428 Hodgkin Lymphoma” value in the assay on L428 Hodgkin Lymphoma was above 1000 ng/mL.

B5: h1F6-35(4): 4-load auristatin ADC targeting CD70: h1F6 antibody conjugated to drug linker compound 35 (conjugate, chains of the INN, looked up)
VH: B1 VH
VL: B1 VL
modifications: auristatin drug linker compound 35, 4-load
Turning to B5, the “In vitro IC50 786-O Renal Cell Carcinoma” value in [4] came out at 7 ng/mL. Also, the “In vitro IC50 A498 Renal Cell Carcinoma” value in assay [5] is listed as 23 ng/mL. In addition, the “In vitro IC50 L428 Hodgkin Lymphoma” value with L428 Hodgkin Lymphoma is 2 ng/mL.

B6: h1F6-36(4): 4-load auristatin ADC targeting CD70: h1F6 antibody conjugated to drug linker compound 36 (conjugate, chains of the INN, looked up)
VH: B1 VH
VL: B1 VL
modifications: auristatin drug linker compound 36, 4-load
For B6, the “In vitro IC50 786-O Renal Cell Carcinoma” value in [4] is reported as 4 ng/mL. In addition, the “In vitro IC50 A498 Renal Cell Carcinoma” value in assay [5] amounted to 9 ng/mL. Besides, the “In vitro IC50 L428 Hodgkin Lymphoma” value with L428 Hodgkin Lymphoma stood at 1 ng/mL.
